We go through nine compounds from ChEMBL document CHEMBL5465560, “Selectivity Literature for EUbOPEN Chemogenomic Library” (2024).

The target of test [1] is Serine/threonine-protein kinase PAK 2 (Homo sapiens) (UniProt Q13177). The test is described as follows: Selectivity interaction (KinomeScan (DiscoverX)) EUB0000607a PAK2. Particulars: at 10 µM.
A further test deals with Aurora kinase B (Homo sapiens, UniProt Q96GD4). Description: Selectivity interaction (KinomeScan (DiscoverX)) EUB0000607a AURKB. Conditions: at 10 µM.
Sequence of Aurora kinase B (Q96GD4 whole entry): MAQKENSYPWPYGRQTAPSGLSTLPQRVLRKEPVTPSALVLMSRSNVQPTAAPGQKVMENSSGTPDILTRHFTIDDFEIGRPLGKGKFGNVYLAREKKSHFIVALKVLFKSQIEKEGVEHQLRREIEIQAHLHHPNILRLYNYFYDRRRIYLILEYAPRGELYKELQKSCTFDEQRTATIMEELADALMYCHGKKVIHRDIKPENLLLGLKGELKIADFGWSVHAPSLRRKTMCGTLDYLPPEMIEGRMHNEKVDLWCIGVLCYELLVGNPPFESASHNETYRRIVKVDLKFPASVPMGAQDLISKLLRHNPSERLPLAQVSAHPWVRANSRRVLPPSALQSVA
Test [2] has as its target Homeodomain-interacting protein kinase 3 (Homo sapiens, UniProt Q9H422). Description: Selectivity interaction (Kinase panel (Invitrogen)) EUB0000639a HIPK3. Conditions: at 200 nM.
Test [3] has as its target Phosphatidylinositol 3-kinase catalytic subunit type 3 (Homo sapiens, UniProt Q8NEB9). The test is described as follows: Selectivity interaction (ActivX KiNativ screen (kinase selectivity in THP-1 cell lysates)) EUB0000639a PIK3C3. Particulars: lysate. The format is subcellular.
The target of test [4] is Tyrosine-protein kinase HCK (Homo sapiens) (UniProt P08631). The test is described as follows: Selectivity interaction (ActivX KiNativ screen (kinase selectivity in THP-1 cell lysates)) EUB0000639a HCK. Conditions: lysate, at 0.2 µM. It is filed as subcellular.
Sequence of Tyrosine-protein kinase HCK (Homo sapiens) (P08631 2-526 limits assumed): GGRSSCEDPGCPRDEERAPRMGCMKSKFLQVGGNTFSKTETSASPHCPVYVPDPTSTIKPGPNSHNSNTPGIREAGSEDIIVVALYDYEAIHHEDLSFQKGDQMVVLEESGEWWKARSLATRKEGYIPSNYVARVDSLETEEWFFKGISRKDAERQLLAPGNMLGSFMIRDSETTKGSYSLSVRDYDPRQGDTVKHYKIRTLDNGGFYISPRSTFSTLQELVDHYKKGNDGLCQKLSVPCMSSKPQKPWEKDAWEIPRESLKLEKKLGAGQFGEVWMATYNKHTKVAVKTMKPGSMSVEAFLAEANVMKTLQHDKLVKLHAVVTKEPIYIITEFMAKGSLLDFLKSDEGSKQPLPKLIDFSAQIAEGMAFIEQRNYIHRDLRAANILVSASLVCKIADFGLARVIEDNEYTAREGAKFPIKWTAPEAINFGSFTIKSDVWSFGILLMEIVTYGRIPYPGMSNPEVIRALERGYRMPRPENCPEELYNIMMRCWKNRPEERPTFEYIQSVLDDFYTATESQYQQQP
Test [5] addresses T1, Serine/threonine-protein kinase D2 (Homo sapiens) (UniProt Q9BZL6).
T1 sequence (whole entry): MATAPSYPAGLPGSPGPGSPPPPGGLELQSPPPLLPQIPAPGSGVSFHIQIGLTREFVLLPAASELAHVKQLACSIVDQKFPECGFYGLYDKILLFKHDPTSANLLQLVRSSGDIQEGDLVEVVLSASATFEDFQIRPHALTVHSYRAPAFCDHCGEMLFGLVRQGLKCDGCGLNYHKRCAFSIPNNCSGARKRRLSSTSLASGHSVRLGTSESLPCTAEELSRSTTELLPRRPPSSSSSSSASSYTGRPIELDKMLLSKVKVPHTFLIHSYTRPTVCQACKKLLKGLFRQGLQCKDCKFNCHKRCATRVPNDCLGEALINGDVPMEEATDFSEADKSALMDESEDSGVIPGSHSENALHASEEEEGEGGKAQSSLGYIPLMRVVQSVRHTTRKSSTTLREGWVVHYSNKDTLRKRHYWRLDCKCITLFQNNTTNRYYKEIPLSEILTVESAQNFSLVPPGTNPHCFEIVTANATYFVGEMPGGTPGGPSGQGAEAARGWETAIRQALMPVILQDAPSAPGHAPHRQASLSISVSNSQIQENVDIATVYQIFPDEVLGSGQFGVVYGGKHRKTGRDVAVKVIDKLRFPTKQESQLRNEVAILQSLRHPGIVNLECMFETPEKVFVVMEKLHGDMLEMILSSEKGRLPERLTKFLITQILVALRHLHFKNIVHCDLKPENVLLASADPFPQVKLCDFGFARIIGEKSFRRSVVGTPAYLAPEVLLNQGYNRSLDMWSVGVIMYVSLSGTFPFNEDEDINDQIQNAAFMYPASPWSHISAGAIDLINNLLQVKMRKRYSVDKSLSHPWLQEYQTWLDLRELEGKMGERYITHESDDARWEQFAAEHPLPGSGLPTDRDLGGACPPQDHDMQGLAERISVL
The test is described as follows: Selectivity interaction (ActivX KiNativ screen (kinase selectivity in THP-1 cell lysates)) EUB0000639a PRKD2. It is filed as subcellular. Conditions: lysate, at 0.04 µM.

In test [6] the target is Proto-oncogene tyrosine-protein kinase Src (Homo sapiens, UniProt P12931). Description: Selectivity interaction (KinomeScan (DiscoverX)) EUB0000045b SRC.
Sequence of Proto-oncogene tyrosine-protein kinase Src (P12931 2-536 limits assumed): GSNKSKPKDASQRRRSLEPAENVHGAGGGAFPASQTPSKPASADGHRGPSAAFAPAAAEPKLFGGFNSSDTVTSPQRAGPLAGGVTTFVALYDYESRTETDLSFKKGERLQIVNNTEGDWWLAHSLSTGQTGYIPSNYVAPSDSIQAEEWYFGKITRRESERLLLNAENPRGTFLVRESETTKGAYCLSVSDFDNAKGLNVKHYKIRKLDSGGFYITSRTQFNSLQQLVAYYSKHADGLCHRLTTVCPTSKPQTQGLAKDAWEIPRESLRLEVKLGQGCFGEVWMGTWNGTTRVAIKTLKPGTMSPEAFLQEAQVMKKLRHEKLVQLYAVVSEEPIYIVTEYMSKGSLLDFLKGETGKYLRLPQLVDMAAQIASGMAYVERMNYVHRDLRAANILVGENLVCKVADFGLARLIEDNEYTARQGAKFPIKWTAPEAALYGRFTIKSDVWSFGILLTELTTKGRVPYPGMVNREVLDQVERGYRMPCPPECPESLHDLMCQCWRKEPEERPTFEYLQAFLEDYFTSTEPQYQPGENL
The target of test [7] is Mitogen-activated protein kinase 3 (Homo sapiens, UniProt P27361). Description: Selectivity interaction (ProQinase) EUB0000171b MAPK3.
Sequence of Mitogen-activated protein kinase 3 (P27361 whole entry): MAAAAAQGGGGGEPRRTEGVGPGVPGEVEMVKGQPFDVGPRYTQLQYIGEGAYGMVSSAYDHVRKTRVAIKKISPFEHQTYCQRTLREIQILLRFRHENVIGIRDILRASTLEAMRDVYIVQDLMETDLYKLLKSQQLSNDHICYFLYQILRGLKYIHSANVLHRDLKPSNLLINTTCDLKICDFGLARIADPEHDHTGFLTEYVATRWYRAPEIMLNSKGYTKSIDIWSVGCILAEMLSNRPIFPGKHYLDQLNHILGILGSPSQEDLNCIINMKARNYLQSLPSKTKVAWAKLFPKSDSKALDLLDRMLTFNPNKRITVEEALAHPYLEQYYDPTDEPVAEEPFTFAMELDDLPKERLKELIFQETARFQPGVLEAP
Test [8] has as its target Angiopoietin-1 receptor (Homo sapiens) (UniProt Q02763). The test is described as follows: Selectivity interaction (Upstate Kinase Profiler service (Millipore)) EUB0000056c TEK. Particulars: at 1 µM.
For test [9], the target named is T1, Serine/threonine-protein kinase D2 (Homo sapiens). Description: Selectivity interaction (Upstate Kinase Profiler service (Millipore)) EUB0000056c PRKD2. Particulars: at 1 µM.
Test [10] deals with Mitogen-activated protein kinase kinase kinase 8 (Homo sapiens, UniProt P41279). Description: Selectivity interaction (Kinase panel (33PanQinase(R) Activity Assay)) EUB0000877a MAP3K8.
Sequence of Mitogen-activated protein kinase kinase kinase 8 (P41279 whole entry): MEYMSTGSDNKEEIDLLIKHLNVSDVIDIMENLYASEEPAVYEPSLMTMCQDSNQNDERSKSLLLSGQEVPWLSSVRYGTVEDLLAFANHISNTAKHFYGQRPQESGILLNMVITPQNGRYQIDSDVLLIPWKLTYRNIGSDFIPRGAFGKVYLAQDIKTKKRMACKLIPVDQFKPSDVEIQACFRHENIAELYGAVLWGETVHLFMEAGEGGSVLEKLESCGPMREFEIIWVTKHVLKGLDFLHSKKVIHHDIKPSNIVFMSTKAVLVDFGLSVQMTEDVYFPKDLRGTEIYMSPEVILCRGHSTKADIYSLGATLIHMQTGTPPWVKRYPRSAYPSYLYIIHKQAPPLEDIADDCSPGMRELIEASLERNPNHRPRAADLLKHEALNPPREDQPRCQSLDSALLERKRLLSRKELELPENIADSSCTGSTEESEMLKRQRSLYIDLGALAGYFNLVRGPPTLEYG
In test [11] the target is T2, Activin receptor type-1 (Homo sapiens) (UniProt Q04771).
T2 sequence (whole entry): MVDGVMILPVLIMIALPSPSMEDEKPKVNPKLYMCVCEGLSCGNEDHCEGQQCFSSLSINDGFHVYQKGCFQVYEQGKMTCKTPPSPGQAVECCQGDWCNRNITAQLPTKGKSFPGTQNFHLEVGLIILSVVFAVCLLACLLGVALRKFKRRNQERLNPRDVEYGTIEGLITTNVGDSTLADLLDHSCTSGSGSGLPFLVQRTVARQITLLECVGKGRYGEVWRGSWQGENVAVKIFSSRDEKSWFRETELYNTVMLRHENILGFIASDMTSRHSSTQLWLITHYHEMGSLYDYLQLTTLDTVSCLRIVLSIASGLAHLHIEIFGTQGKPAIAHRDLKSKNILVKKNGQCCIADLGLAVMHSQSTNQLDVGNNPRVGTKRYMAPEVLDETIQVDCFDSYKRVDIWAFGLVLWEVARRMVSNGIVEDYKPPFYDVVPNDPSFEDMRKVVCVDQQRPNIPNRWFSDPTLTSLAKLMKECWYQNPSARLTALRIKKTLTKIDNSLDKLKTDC
The test is described as follows: Selectivity interaction (KinomeScan (DiscoverX)) EUB0000655a ACVR1. Particulars: at 10 µM.

For test [12], the target named is Non-receptor tyrosine-protein kinase TYK2 (Homo sapiens, UniProt P29597). The test is described as follows: Selectivity interaction (KinomeScan (DiscoverX)) EUB0000092b TYK2. Conditions: at 10 µM.
Sequence of Non-receptor tyrosine-protein kinase TYK2 (P29597 whole entry): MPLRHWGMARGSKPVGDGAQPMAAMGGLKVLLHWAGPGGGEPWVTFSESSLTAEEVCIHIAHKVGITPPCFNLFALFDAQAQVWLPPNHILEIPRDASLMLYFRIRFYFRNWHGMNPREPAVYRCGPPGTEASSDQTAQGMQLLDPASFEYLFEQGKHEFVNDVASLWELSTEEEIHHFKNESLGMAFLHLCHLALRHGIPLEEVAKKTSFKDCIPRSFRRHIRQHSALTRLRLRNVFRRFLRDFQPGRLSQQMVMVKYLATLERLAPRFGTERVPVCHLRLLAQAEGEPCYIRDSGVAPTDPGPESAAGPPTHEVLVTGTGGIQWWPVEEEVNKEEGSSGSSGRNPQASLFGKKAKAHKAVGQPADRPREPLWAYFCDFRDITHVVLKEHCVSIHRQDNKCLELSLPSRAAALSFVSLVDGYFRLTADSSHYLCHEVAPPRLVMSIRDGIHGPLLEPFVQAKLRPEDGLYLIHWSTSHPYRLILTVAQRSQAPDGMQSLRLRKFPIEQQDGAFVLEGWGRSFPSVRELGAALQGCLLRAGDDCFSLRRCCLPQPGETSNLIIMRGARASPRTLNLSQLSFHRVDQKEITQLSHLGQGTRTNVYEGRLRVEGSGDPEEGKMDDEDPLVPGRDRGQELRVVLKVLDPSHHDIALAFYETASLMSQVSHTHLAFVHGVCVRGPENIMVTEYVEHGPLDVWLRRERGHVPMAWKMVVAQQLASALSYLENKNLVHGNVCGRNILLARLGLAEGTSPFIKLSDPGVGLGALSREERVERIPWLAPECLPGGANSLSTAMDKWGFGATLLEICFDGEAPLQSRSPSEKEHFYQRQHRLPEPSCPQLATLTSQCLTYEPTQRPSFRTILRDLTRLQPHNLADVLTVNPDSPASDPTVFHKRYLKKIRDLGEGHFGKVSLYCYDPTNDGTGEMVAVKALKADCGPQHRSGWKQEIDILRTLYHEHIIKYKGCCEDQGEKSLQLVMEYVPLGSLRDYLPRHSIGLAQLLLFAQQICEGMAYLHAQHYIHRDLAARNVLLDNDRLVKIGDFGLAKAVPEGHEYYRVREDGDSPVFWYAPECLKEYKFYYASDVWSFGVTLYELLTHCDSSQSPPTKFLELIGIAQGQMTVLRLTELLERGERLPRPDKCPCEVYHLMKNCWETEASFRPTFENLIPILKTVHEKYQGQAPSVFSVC
For test [13], the target named is T3, Muscarinic acetylcholine receptor M2 (Homo sapiens) (UniProt P08172).
T3 sequence (whole entry): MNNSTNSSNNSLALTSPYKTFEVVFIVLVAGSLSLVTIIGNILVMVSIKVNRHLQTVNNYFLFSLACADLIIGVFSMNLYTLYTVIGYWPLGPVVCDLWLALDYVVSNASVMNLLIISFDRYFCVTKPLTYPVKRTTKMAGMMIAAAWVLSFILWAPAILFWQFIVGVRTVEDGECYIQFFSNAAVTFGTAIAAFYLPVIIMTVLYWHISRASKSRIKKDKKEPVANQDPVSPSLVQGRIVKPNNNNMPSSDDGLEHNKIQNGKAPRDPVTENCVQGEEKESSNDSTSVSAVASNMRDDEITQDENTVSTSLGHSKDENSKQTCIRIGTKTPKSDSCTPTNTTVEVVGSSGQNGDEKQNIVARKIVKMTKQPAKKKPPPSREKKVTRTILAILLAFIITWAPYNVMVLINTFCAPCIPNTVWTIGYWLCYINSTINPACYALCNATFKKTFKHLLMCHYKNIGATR
Description: Selectivity interaction (Panel of kinases, GPCRs, ion channels and transporters (enzymatic assay)) EUB0000266bCl CHRM2.

SMILES strings stand for the structures.

Sequence of Phosphatidylinositol 3-kinase catalytic subunit type 3 (Q8NEB9 whole entry): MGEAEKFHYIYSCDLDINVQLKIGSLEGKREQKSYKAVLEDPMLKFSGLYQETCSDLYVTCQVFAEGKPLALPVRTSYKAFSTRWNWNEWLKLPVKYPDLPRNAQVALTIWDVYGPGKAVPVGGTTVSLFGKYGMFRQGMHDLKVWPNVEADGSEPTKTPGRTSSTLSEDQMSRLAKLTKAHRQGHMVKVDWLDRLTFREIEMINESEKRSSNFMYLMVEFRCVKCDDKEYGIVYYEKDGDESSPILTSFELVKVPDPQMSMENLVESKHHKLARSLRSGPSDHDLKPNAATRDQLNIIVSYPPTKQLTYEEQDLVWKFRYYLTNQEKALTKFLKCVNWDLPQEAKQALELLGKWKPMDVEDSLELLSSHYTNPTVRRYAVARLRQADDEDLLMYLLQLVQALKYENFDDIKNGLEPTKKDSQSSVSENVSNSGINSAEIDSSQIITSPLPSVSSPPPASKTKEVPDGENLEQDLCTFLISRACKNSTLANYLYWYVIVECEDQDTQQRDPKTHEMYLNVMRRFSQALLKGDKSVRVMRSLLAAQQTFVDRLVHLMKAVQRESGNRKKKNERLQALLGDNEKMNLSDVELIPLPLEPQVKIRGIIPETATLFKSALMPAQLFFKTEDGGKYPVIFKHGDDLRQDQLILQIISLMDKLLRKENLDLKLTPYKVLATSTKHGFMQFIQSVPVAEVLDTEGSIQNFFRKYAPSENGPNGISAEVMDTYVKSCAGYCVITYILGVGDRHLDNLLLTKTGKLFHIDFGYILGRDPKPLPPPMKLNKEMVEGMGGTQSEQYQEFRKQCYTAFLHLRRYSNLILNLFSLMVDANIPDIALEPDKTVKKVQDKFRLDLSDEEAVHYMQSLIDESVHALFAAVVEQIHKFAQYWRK
Sequence of Serine/threonine-protein kinase PAK 2 (Homo sapiens) (Q13177 whole entry): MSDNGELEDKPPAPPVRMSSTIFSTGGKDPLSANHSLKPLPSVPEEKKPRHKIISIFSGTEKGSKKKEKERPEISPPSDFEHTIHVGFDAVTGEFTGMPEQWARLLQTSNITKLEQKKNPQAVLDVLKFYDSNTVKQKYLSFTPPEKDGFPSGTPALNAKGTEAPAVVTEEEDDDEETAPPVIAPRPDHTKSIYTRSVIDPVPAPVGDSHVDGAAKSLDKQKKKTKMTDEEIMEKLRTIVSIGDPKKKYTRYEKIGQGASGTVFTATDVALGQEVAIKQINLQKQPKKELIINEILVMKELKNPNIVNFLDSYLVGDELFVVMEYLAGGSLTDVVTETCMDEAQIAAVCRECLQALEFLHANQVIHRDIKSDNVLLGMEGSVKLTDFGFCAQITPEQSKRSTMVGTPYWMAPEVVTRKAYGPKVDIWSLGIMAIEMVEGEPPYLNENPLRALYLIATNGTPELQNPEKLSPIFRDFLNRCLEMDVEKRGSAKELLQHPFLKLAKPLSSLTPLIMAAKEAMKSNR

With `CNC(=O)Nc1ccc(-c2nc(N3CC4CCC(C3)O4)c3cnn(C4CCC5(CC4)OCCO5)c3n2)cc1`, the % of control in [1] was 99%; on Aurora kinase B, 92%.

With `CC[C@@H]1[C@H](F)C(=O)N[C@@H]1COc1nccc2cc(C(N)=O)c(OC)cc12` [ZIMLOVISERTIB], the % of inhibition was 5.1% in [2]; 1% in test [3] (at 0.01 µM); -8.9% in test [3] (at 0.04 µM); -9.3% in test [3] (at 0.2 µM); 2.6% in [3] (at 1 µM); 6.3% in [3] (at 5 µM). Further, the % of inhibition in test [4] was -32.6%; in [5], -3.5%.

Consider `C=CC(=O)Nc1cc(-n2c(=O)ccc3cnc4ccc(-c5ccc(NS(C)(=O)=O)cc5)cc4c32)ccc1C`, for which the % of control came to 92% in test [6] (at 1 µM) and 100% in [6] (at 10 µM).

For the compound `C=CC(=O)Nc1cccc(C(=O)Nc2ccc(Nc3cc(-c4[nH]c(SC)nc4C)ccn3)cc2)c1`, the % of control turned out to be 101% in test [7] (at 1 µM) and 99% in test [7] (at 5 µM).

`Cc1ccc(-c2ccc3c(ccc4sc5c(c43)NC[C@@H](C)NC5=O)n2)cn1`: the figures for the % of inhibition in test [8] and in test [9] were -31% and -9%, respectively.

One may read the IC50 as the concentration that gives 50% inhibition. `CCC(=O)N1CC[C@H](Nc2ncnc3c2CN(c2cnc(OC)c(C(F)(F)F)c2)CC3)C1` [LENIOLISIB] came in with an IC50 in test [10] of over 10 µM.

As for `CN(C)CCOc1ccc(-c2nc(-c3ccncc3)c(-c3ccc4c(c3)CC/C4=N\O)[nH]2)cc1`, the % of control in test [11] worked out at 51%.

Consider `CCC(=O)N1CCN(c2ccc(-n3c(=O)ccc4cnc5ccc(-c6cnc7ccccc7c6)cc5c43)cc2C(F)(F)F)CC1`, for which the % of control in test [12] came to 70%.

Take `CCn1c(-c2nc3cc(C(=O)N4CCCC(N)C4)ccc3n2C)cc2ccccc21` (stereo not given): the pXC50 in test [13] was under 4.8 M.
